Experimental data published in patent publication US9717706B2, “Chromone inhibitors of S-nitrosoglutathione reductase” (Nivalis Therapeutics, Inc., priority 2010, dated 2017).
Like-named read-outs stand apart in the source and are kept apart here.

Legend:
GSNOR = biological target: T1, GSNOR (Homo sapiens, UniProt P11766); experiment: GSNOR assay (inhibition of GSNOR activity, NADH absorbance at 340 nm); format: biochemical; conditions: read-out: IC50 (GSNOR inhibitor activity)
T1 construct: made in house; host or cells: E. coli (arabinose-induced)
T1 sequence (P11766 whole entry): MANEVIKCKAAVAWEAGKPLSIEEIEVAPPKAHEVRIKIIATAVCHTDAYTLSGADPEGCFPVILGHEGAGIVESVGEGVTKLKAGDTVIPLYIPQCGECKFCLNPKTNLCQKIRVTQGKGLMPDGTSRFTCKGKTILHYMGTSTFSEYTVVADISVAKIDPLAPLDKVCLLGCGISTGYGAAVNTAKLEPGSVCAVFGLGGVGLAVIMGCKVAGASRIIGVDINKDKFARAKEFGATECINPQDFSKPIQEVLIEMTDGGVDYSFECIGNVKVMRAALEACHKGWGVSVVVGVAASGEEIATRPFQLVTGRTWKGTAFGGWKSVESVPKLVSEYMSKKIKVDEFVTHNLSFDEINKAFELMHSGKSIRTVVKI
Protocol: Various compounds were tested in vitro for their ability to inhibit GSNOR activity. GSNOR expression and purification is described in Biochemistry 2000, 39, 10720-10729.
GSNOR Fermentation: Pre-cultures were grown from stabs of a GSNOR glycerol stock in 2XYT media containing 100 ug/ml ampicillin after an overnight incubation at 37° C. Cells were then added to fresh 2XYT (4 L) containing ampicillin and grown to an OD (A600) of 0.6-0.9 at 37° C. before induction. GSNOR expression was induced with 0.1% arabinose in an overnight incubation at 20° C.
GSNOR Purification: E. coli cell paste was lysed by nitrogen cavitation and the clarified lysate purified by Ni affinity chromatography on an AKTA FPLC (Amersham Pharmacia). The column was eluted in 20 mM Tris pH 8.0/250 mM NaCl with a 0-500 mM imidazole gradient. Eluted GSNOR fractions containing the Smt-GSNOR fusion were digested overnight with Ulp-1 at 4° C. to remove the affinity tag then re-run on the Ni column under the same conditions. GSNOR was recovered in the flowthrough fraction and for crystallography is further purified by Q-Sepharose and Heparin flowthrough chromatography in 20 mM Tris pH 8.0, 1 mM DTT, 10 uM ZnSO4.
GSNOR Assay: GSNO and Enzyme/NADH Solutions are made up fresh each day. The Solutions are filtered and allowed to warm to room temperature. GSNO Solution: 100 mM NaPO4 (pH 7.4), 0.480 mM GSNO. 396 μL of GSNO Solution is added to a cuvette followed by 8 μL of test compound in DMSO (or DMSO only for full reaction control) and mixed with the pipette tip. Compounds to be tested are made up at a stock concentration of 10 mM in 100% DMSO. 2 fold serial dilutions are done in 100% DMSO. 8 μL of each dilution are added to an assay so that the final concentration of DMSO in the assay is 1%. The concentrations of compounds tested range from 100 to 0.003 μM. Enzyme/NADH Solution: 100 mM NaPO4 (pH 7.4), 0.600 mM NADH, 1.0 μg/mL GSNO Reductase. 396 μL of the Enzyme/NADH Solution is added to the cuvette to start the reaction. The cuvette is placed in the Cary 3E UV/Visible Spectrophotometer and the change in 340 nm absorbance/min at 25° C. is recorded for 3 minutes. The assays are done in triplicate for each compound concentration. IC50's for each compound are calculated using the standard curve analysis in the Enzyme Kinetics Module of SigmaPlot.
Final assay conditions: 100 mM NaPO4, pH 7.4, 0.240 mM GSNO, 0.300 mM NADH, 0.5 μg/mL GSNO Reductase and 1% DMSO. Final volume: 800 μL/cuvette.

[1] = Mouse pharmacokinetic (PK) study; format: in vivo; conditions: plasma, male BALB/c mice, 10 mg/kg PO vs 2 mg/kg IV, single dose, based on area under the curve
Text: The mouse is used to determine the pharmacokinetics of GSNOR inhibitors. This species is widely used to assess the bioavailability of compounds by administering both oral (PO) and intravenous (IV) test articles. Efficacy of the GSNOR inhibitors can be compared by assessing plasma exposure in male BALB/c mice either via IV or PO administration at the times of peak activity.
The GSNOR inhibitor Compound 10 was reconstituted in a phosphate buffered saline (PBS)/10% Solutol (HS 15) clear solution resulting in a concentration of 0.2 mg/mL and administered to mice (2 mg/kg) as a single IV dose. Animals were dosed via the lateral tail vein. […] The plasma was transferred into labeled polypropylene tubes and frozen at −70° C. until analyzed by LC/MS/MS.
The GSNOR inhibitor Compound 10 was reconstituted in 40% Propylene Glycol/40% Propylene Carbonate/20% of a 5% Sucrose clear solution resulting in a concentration of 2 mg/mL and administered to mice (10 mg/kg) as a single oral dose via gavage. […] The plasma was transferred into labeled polypropylene tubes and frozen at −70° C. until analyzed by LC/MS/MS.
Plasma samples at each timepoint were analyzed using a LC-MS/MS with a lower limit of quantification (LLOQ) of 1 ng/mL. Plasma was analyzed to determine the amount of the GSNOR inhibitor in each sample and regression curves were generated for each GSNOR inhibitor in the relevant matrixes. […]

[2] = assay of Example 24, 0.240 mM GSNO, 0.300 mM NADH, pH 7.4, 25° C.

SMILES | IC50 (GSNOR; [2]) [nM] | bioavailability [1] [%] | IC50 (GSNOR; method described in Example 24, comparative example) [nM]
O=C(O)c1ccc(-c2c(C(F)(F)F)oc3cc(O)ccc3c2=O)c(Cl)c1 [Example 15, 3-chloro-4-(7-hydroxy-4-oxo-2-(trifluoromethyl)-4H-chromen-3-yl)benzoic acid] | < 100 | – | –
CC(F)(F)c1oc2cc(O)ccc2c(=O)c1-c1ccc(C(=O)O)cc1 [Example 16, 4-(2-(1,1-difluoroethyl)-7-hydroxy-4-oxo-4H-chromen-3-yl)benzoic acid] | < 100 | – | –
O=C(O)c1ccc(-c2c(C(F)(F)F)oc3cc(O)ccc3c2=O)cc1 [Example 10, 4-(7-hydroxy-4-oxo-2-(trifluoromethyl)-4H-chromen-3-yl)benzoic acid] | < 100 | > 17 | –
COCc1oc2cc(O)ccc2c(=O)c1-c1ccc(C(=O)O)cc1 [Example 2, 4-(7-hydroxy-2-(methoxymethyl)-4-oxo-4H-chromen-3-yl)benzoic acid] | < 500 | – | –
Cc1oc2cc(O)ccc2c(=O)c1-c1ccc(C(=O)O)cc1 [Example 5, 4-(7-hydroxy-2-methyl-4-oxo-4H-chromen-3-yl)benzoic acid] | < 500 | – | –
O=C(O)c1ccc(-c2c(Cc3ccccc3)oc3cc(O)ccc3c2=O)cc1 [Example 6, 4-(2-benzyl-7-hydroxy-4-oxo-4H-chromen-3-yl)benzoic acid] | < 500 | – | –
COc1cc(C(=O)O)ccc1-c1c(C(F)(F)F)oc2cc(O)ccc2c1=O [Example 20, 4-(7-hydroxy-4-oxo-2-(trifluoromethyl)-4H-chromen-3-yl)-3-methoxybenzoic acid] | < 100 | – | –
CCC(F)(F)c1oc2cc(O)ccc2c(=O)c1-c1ccc(C(=O)O)cc1 [Example 19, 4-(2-(1,1-difluoropropyl)-7-hydroxy-4-oxo-4H-chromen-3-yl)benzoic acid] | < 500 | – | –
O=C(O)c1ccc(-c2c(C(F)(F)F)oc3cc(O)c(F)cc3c2=O)cc1 [Example 13, 4-(6-fluoro-7-hydroxy-4-oxo-2-(trifluoromethyl)-4H-chromen-3-yl)benzoic acid] | < 500 | – | –
O=C(O)c1ccc(-c2c(C(F)(F)F)oc3cc(O)ccc3c2=O)cc1F [Example 14, 2-fluoro-4-(7-hydroxy-4-oxo-2-(trifluoromethyl)-4H-chromen-3-yl)benzoic acid] | < 100 | – | –
O=C(O)c1ccc(-c2coc3cc(O)ccc3c2=O)cc1 [Example 22, 4-(7-hydroxy-4-oxo-4H-chromen-3-yl)benzoic acid, reference compound] | – | – | 135
O=C(O)c1ccc(-c2c(C(F)F)oc3cc(O)ccc3c2=O)cc1 [Example 1, 4-(2-(difluoromethyl)-7-hydroxy-4-oxo-4H-chromen-3-yl)benzoic acid] | < 100 | – | –
CC(C)c1oc2cc(O)ccc2c(=O)c1-c1ccc(C(=O)O)cc1 [Example 3, 4-(7-hydroxy-2-isopropyl-4-oxo-4H-chromen-3-yl)benzoic acid] | < 500 | – | –
O=C(O)c1ccc(-c2c(C(F)(F)F)oc3cc(O)ccc3c2=O)cc1Cl [Example 18, 2-chloro-4-(7-hydroxy-4-oxo-2-(trifluoromethyl)-4H-chromen-3-yl)benzoic acid] | < 100 | – | –
